Reference: patent publication US8513229B2, “4-Azetidinyl-1-phenyl-cyclohexane antagonists of CCR2” (Janssen Pharmaceutica NV, priority 2009, dated 2013)
pIC50: −log10 of the molar value.

Target: T1, CCR2 (Homo sapiens, UniProt P41597)
T1 construct: host or cells: THP-1 human monocytic cells
T1 sequence (P41597 1-360 isoform P41597-2): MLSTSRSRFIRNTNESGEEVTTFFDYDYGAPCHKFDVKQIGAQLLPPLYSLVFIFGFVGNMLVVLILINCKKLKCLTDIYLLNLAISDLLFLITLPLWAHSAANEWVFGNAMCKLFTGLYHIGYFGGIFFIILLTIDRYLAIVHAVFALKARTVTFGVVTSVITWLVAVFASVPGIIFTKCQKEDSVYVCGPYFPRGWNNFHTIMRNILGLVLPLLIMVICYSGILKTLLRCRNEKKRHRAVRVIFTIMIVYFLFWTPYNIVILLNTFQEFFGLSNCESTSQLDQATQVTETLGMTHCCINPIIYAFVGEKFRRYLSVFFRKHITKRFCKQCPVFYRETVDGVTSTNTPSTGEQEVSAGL
Experiment: MCP-1 Receptor Binding Assay in THP-1 Cells
Settings: 0.5 nM 125I labeled MCP-1, 2 hours at 30° C., read-out: Inhibition of MCP-1 Binding IC50 CCR2 Binding
Procedure: MCP-1 Receptor Binding Assay in THP-1 Cells
Human monocytic cell line THP-1 cells were obtained from American Type Culture Collection (Manassas, Va., USA). […] The cell density was maintained […].
1 μM cold MCP-1 was used for nonspecific binding.

SMILES | pIC50
O=C(CNC(=O)c1cccc(C(F)(F)F)c1)NC1CN(C2CCC(c3ccc4nc[nH]c4c3)CC2)C1 (single isomer, unassigned) [Example 20a, N-({1-[4-(3H-Benzoimidazol-5-yl)-cyclohexyl]-azetidin-3-ylcarbamoyl}-methyl)-3-trifluoromethyl-benzamide] | 7.57
O=C(CNC(=O)c1cccc(C(F)(F)F)c1)NC1CN(C2CCC(O)(c3ccc(O)cc3)CC2)C1 (stereo not drawn) [Example 42, N-({1-[4-Hydroxy-4-(4-hydroxy-phenyl)-cyclohexyl]-azetidin-3-ylcarbamoyl}-methyl)-3-trifluoromethyl-benzamide] | 6.89
Nc1ccc(C2CCC(N3CC(NC(=O)CNC(=O)c4cccc(C(F)(F)F)c4)C3)CC2)cc1 (stereo not drawn) [Example 15, N-({1-[4-(4-Amino-phenyl)-cyclohexyl]-azetidin-3-ylcarbamoyl}-methyl)-3-trifluoromethyl-benzamide] | 6.47
N#Cc1cccc(C2(O)CCC(N3CC(NC(=O)CNC(=O)c4cccc(C(F)(F)F)c4)C3)CC2)c1 (single isomer, unassigned) [Example 48a, N-({1-[4-(3-Cyano-phenyl)-4-hydroxy-cyclohexyl]-azetidin-3-ylcarbamoyl}-methyl)-3-trifluoromethyl-benzamide] | 6.38
NC(=O)Cc1ccc(C2CCC(N3CC(NC(=O)CNC(=O)c4cccc(C(F)(F)F)c4)C3)CC2)cc1 (stereo not drawn) [Example 26, N-({1-[4-(4-Carbamoylmethyl-phenyl)-cyclohexyl]-azetidin-3-ylcarbamoyl}-methyl)-3-trifluoromethyl-benzamide] | 7.15
O=C(CNC(=O)c1cccc(C(F)(F)F)c1)NC1CN(C2CCC(O)(c3cccc(O)c3)CC2)C1 (single isomer, unassigned) [Example 46a, N-({1-[4-Hydroxy-4-(3-hydroxy-phenyl)-cyclohexyl]-azetidin-3-ylcarbamoyl}-methyl)-3-trifluoromethyl-benzamide] | 6.96

The remaining lines, values ahead:

pIC50 | SMILES
7.09 | Cn1c(=O)n(C)c2cc(C3(O)CCC(N4CC(NC(=O)CNC(=O)c5cccc(C(F)(F)F)c5)C4)CC3)ccc21 (stereo not drawn) [Example 62, N-({1-[4-(1,3-Dimethyl-2-oxo-2,3-dihydro-1H-benzoimidazol-5-yl)-4-hydroxy-cyclohexyl]-azetidin-3-ylcarbamoyl}-methyl)-3-trifluoromethyl-benzamide]
6.64 | CC(C)(C)OC(=O)Nc1ccc(C2(O)CCC(N3CC(NC(=O)CNC(=O)c4cccc(C(F)(F)F)c4)C3)CC2)cc1 (stereo not drawn) [Example 50, [4-(1-Hydroxy-4-{3-[2-(3-trifluoromethyl-benzoylamino)-acetylamino]-azetidin-1-yl}-cyclohexyl)-phenyl]-carbamic acid tert-butyl ester]
5.28 | COc1ccccc1C1(O)CCC(N2CC(NC(=O)CNC(=O)c3cccc(C(F)(F)F)c3)C2)CC1 (single isomer, unassigned) [Example 56a, N-({1-[4-Hydroxy-4-(2-methoxy-phenyl)-cyclohexyl]-azetidin-3-ylcarbamoyl}-methyl)-3-trifluoromethyl-benzamide]
